Test [1] deals with T1, Estrogen receptor (Homo sapiens, UniProt P03372).
T1 sequence (P03372 whole entry): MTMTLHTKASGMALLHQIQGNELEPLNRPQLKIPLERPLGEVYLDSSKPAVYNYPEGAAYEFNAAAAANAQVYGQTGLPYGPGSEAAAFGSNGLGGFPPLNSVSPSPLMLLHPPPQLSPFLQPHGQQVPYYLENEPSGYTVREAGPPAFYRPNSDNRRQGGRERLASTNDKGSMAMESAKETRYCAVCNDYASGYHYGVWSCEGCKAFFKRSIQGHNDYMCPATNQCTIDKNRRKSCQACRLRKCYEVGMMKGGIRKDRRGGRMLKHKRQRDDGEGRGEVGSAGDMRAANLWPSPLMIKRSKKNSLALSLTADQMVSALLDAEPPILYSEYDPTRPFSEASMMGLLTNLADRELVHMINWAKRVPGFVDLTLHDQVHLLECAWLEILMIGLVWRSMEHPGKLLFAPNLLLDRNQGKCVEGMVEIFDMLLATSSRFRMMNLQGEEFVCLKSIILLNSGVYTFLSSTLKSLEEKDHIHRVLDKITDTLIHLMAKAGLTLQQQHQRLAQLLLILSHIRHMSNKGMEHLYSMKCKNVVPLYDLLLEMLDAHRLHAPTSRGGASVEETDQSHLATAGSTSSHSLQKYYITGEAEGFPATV

In test [2] the target is T1, Estrogen receptor. This is another data set of the same source.
Test [3] addresses T2, Estrogen receptor beta (Homo sapiens, UniProt Q92731).
For test [4], the target named is T2, Estrogen receptor beta. This is another data set of the same source.
Test [5] has as its target T1, Estrogen receptor. The source holds these as a separate data set.
In test [6] the target is T2, Estrogen receptor beta. Conditions: T47D.
The target in test [7] is T2, Estrogen receptor beta. Conditions: T47D, 10e-4 M.

The source made the active and inactive calls. The rule behind the calls is not given here.

T2 sequence (Q92731 whole entry): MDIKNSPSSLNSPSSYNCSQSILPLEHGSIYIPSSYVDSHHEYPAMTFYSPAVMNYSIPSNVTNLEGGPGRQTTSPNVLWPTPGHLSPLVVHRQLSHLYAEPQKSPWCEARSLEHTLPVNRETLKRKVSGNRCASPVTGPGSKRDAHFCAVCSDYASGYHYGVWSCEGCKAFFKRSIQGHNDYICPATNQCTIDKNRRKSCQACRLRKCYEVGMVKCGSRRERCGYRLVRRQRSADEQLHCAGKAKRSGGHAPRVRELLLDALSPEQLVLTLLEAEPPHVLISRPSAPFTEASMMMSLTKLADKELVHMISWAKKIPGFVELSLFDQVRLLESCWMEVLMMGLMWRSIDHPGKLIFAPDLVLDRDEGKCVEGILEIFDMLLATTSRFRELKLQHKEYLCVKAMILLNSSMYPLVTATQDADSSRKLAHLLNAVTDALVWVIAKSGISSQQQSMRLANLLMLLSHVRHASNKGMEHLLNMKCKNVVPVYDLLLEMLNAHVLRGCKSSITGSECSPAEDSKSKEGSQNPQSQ

As to `CN(CCCc1ccc(Cl)cc1)c1nc(NCCc2ccc(O)cc2)nc(N2CCNCC2)n1`, the EC50 on Estrogen receptor [1] was found to be 180 nM. The results for the Ki on Estrogen receptor [2] and at Estrogen receptor beta [4] were 300 nM and 15 nM, respectively. For the same compound, the IC50 at Estrogen receptor beta [3] is 5 nM; against Estrogen receptor [5], 110 nM. For the same compound, the IA result on Estrogen receptor beta [6] was “inactive”.

`O=C(c1ccc(OCCN2CCCCC2)cc1)c1c(-c2ccc(O)cc2)sc2cc(O)ccc12`: the IA result on Estrogen receptor beta [7] is “inactive”.

What is called EC50 is the midpoint of the concentration-response curve. Read a high EC50 as weaker potency. Usually Ki stands for the dissociation constant of the complex between target and ligand, obtained from inhibition or displacement. A higher Ki goes with a looser hold on the target. A word on the IC50: it is the point on the concentration scale where inhibition reaches its midpoint.

For the origin of these results see ChEMBL document CHEMBL1135674, “A new series of estrogen receptor modulators that display selectivity for estrogen receptor beta” (J Med Chem, 2002).
